# Source: ChEMBL document CHEMBL1255346 (2008)
# Key:
# Escherichia coli [1] = assay: Antibacterial activity against Escherichia coli EC600 by agar dilution method; type: functional
# Escherichia coli [2] = assay: Antibacterial activity against Escherichia coli EC600 transconjugant harboring beta-lactamase KPC-2 by agar dilution method; type: functional
# Escherichia coli [3] = assay: microbe, parasite or virus in culture; details: isolate E1
# Description: (§1) Antibacterial activity against beta-lactamase KPC-2 producing Escherichia coli isolate E1 by agar dilution method
# Klebsiella pneumoniae [4] = assay: Antibacterial activity against beta-lactamase KPC-2 producing Klebsiella pneumoniae isolate K10 by agar dilution method; type: functional
# Serratia marcescens [5] = assay: Antibacterial activity against beta-lactamase KPC-2 producing Serratia marcescens isolate S1 to S21 by agar dilution method
# Klebsiella pneumoniae [6] = assay: Antibacterial activity against beta-lactamase KPC-2 producing Klebsiella pneumoniae isolate K1 to K9 by agar dilution method; type: functional
# Escherichia coli [7] = assay: Antibacterial activity against Escherichia coli EC600 in presence of Sulbactam by agar dilution method; type: functional
# Escherichia coli [8] = assay: Antibacterial activity against Escherichia coli EC600 transconjugant harboring beta-lactamase KPC-2 in presence of Sulbactam by agar dilution method
# Escherichia coli [9] = assay: microbe, parasite or virus in culture; details: isolate E1; remark: listed apart in the source
# Description: Antibacterial activity against beta-lactamase KPC-2 producing Escherichia coli isolate E1 in presence of Sulbactam by agar dilution method
# Klebsiella pneumoniae [10] = assay: Antibacterial activity against beta-lactamase KPC-2 producing Klebsiella pneumoniae isolate K10 in presence of Sulbactam by agar dilution method; type: functional
# Serratia marcescens [11] = assay: Antibacterial activity against beta-lactamase KPC-2 producing Serratia marcescens isolate S1 to S21 in presence of Sulbactam by agar dilution method; type: functional
# Klebsiella pneumoniae [12] = assay: Antibacterial activity against beta-lactamase KPC-2 producing Klebsiella pneumoniae isolate K1 to K9 in presence of Sulbactam by agar dilution method; type: functional
# Escherichia coli [13] = assay: Antibacterial activity against Escherichia coli EC600 transconjugant harboring beta-lactamase KPC-2 in presence of Tazobactam by agar dilution method; type: functional
# Escherichia coli [14] = assay: Antibacterial activity against beta-lactamase KPC-2 producing Escherichia coli isolate E1 in presence of Tazobactam by agar dilution method; type: functional
# Escherichia coli [15] = assay: Antibacterial activity against Escherichia coli EC600 in presence of Tazobactam by agar dilution method; type: functional
# Klebsiella pneumoniae [16] = assay: Antibacterial activity against beta-lactamase KPC-2 producing Klebsiella pneumoniae isolate K1 to K9 in presence of Tazobactam by agar dilution method; type: functional
# Klebsiella pneumoniae [17] = assay: Antibacterial activity against beta-lactamase KPC-2 producing Klebsiella pneumoniae isolate K10 in presence of Tazobactam by agar dilution method; type: functional
# Serratia marcescens [18] = assay: Antibacterial activity against beta-lactamase KPC-2 producing Serratia marcescens isolate S1 to S21 in presence of Tazobactam by agar dilution method; type: functional
# Escherichia coli [19] = details: isolate E1
# Description: as §1
Compound,MIC (Escherichia coli [1]),MIC (Escherichia coli [2]),MIC (Escherichia coli [3]),MIC (Klebsiella pneumoniae [4]),MIC (Serratia marcescens [5]),MIC (Klebsiella pneumoniae [6]),other results
C[C@@H](O)[C@H]1C(=O)N2C(C(=O)O)=C(S[C@@H]3CN[C@H](C(=O)Nc4cccc(C(=O)O)c4)C3)[C@H](C)[C@H]12,≤ 0.125 µg/mL,4 µg/mL,8 µg/mL,> 256 µg/mL,4 µg/mL,8 µg/mL,
CO/N=C(\C(=O)N[C@@H]1C(=O)N2C(C(=O)[O-])=C(C[N+]3(C)CCCC3)CS[C@H]12)c1csc(N)n1,≤ 0.125 µg/mL,8 µg/mL,64 µg/mL,256 µg/mL,8 µg/mL,,
CC1(C)S[C@@H]2[C@H](NC(=O)[C@H](N)c3ccccc3)C(=O)N2[C@H]1C(=O)O [AMPICILLIN],8 µg/mL,> 256 µg/mL,> 256 µg/mL,> 256 µg/mL,> 256 µg/mL,> 256 µg/mL,
C[C@H]1[C@H](NC(=O)/C(=N\OC(C)(C)C(=O)O)c2csc(N)n2)C(=O)N1S(=O)(=O)O [AZTREONAM],≤ 0.125 µg/mL,128 µg/mL,256 µg/mL,> 256 µg/mL,128 µg/mL,256 µg/mL,
CCN1CCN(C(=O)N[C@@H](C(=O)N[C@@H]2C(=O)N3C(C(=O)O)=C(CSc4nnnn4C)CS[C@H]23)c2ccc(O)cc2)C(=O)C1=O [CEFOPERAZONE],,,,,,,MIC (Escherichia coli [7]): ≤ 0.125 µg/mL; MIC (Escherichia coli [8]): 32 µg/mL; MIC (Escherichia coli [9]): 128 µg/mL; MIC (Klebsiella pneumoniae [10]): > 256 µg/mL; MIC (Serratia marcescens [11]): 32 µg/mL; MIC (Klebsiella pneumoniae [12]): 128 µg/mL
CO/N=C(\C(=O)N[C@@H]1C(=O)N2C(C(=O)O)=C(COC(C)=O)CS[C@H]12)c1csc(N)n1 [CEFOTAXIME],≤ 0.125 µg/mL,8 µg/mL,256 µg/mL,256 µg/mL,16 µg/mL,128 µg/mL,
CO[C@@]1(NC(=O)Cc2cccs2)C(=O)N2C(C(=O)O)=C(COC(N)=O)CS[C@@H]21 [CEFOXITIN],8 µg/mL,16 µg/mL,32 µg/mL,256 µg/mL,16 µg/mL,8 µg/mL,
CC(C)(O/N=C(\C(=O)N[C@@H]1C(=O)N2C(C(=O)[O-])=C(C[n+]3ccccc3)CS[C@H]12)c1csc(N)n1)C(=O)O [CEFTAZIDIME],0.25 µg/mL,16 µg/mL,64 µg/mL,256 µg/mL,8 µg/mL,64 µg/mL,
CO/N=C(\C(=O)N[C@@H]1C(=O)N2C(C(=O)O)=C(CSc3nc(=O)c(O)nn3C)CS[C@H]12)c1csc(N)n1 [CEFTRIAXONE],≤ 0.125 µg/mL,32 µg/mL,> 256 µg/mL,> 256 µg/mL,32 µg/mL,256 µg/mL,
O=C(O)c1cn(C2CC2)c2cc(N3CCNCC3)c(F)cc2c1=O [CIPROFLOXACIN],,,> 32 µg/mL,,,,
C[C@@H](O)[C@H]1C(=O)N2C(C(=O)O)=C(SCCNC=N)C[C@H]12 [IMIPENEM ANHYDROUS],≤ 0.125 µg/mL,1 µg/mL,2 µg/mL,128 µg/mL,4 µg/mL,2 µg/mL,
C[C@@H](O)[C@H]1C(=O)N2C(C(=O)O)=C(S[C@@H]3CN[C@H](C(=O)N(C)C)C3)[C@H](C)[C@H]12 [MEROPENEM],≤ 0.125 µg/mL,2 µg/mL,2 µg/mL,256 µg/mL,2 µg/mL,,
CCN1CCN(C(=O)N[C@@H](C(=O)N[C@@H]2C(=O)N3[C@@H]2SC(C)(C)[C@@H]3C(=O)O)c2ccccc2)C(=O)C1=O [PIPERACILLIN],1 µg/mL,256 µg/mL,> 256 µg/mL,> 256 µg/mL,256 µg/mL,,MIC (Escherichia coli [13]): 256 µg/mL; MIC (Escherichia coli [14]): 256 µg/mL; MIC (Escherichia coli [15]): 1 µg/mL; MIC (Klebsiella pneumoniae [16]): > 256 µg/mL; MIC (Klebsiella pneumoniae [17]): > 256 µg/mL; MIC (Serratia marcescens [18]): 128 µg/mL
GENTAMICIN,0.25 µg/mL,0.25 µg/mL,,> 256 µg/mL,,> 256 µg/mL,MIC (Escherichia coli [19]): 64 µg/mL
